According to ChEMBL document CHEMBL1201862, “PubChem BioAssay data set” (2004):
The source made the active and inactive calls.

Assays:
[1] = fluconazole-exposed Candida albicans growth modulators – fluorescence, retest, confirmation (AID 2467); format: functional, cell-based
[2] = system: Streptococcus; experiment: GAS UMAA2166 growth inhibition – luminescence, BacTiterGlo, counter-screen for streptokinase expression inhibitor project, dose response (AID 1915); format: functional, organism-based;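 also: potency for reduction of bacterial viability or growth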
[3] = target: T1, High affinity choline transporter 1 (Homo sapiens, UniProt Q9GZV3); experiment: human choline transporter blockers, potency – cell-based, 10-point CRC, membrane potential dye, dose response (AID 588401); format: functional;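 also: membrane potential dye fluorescence of choline-evoked depolarization via CHT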
T1 sequence (Q9GZV3 whole entry): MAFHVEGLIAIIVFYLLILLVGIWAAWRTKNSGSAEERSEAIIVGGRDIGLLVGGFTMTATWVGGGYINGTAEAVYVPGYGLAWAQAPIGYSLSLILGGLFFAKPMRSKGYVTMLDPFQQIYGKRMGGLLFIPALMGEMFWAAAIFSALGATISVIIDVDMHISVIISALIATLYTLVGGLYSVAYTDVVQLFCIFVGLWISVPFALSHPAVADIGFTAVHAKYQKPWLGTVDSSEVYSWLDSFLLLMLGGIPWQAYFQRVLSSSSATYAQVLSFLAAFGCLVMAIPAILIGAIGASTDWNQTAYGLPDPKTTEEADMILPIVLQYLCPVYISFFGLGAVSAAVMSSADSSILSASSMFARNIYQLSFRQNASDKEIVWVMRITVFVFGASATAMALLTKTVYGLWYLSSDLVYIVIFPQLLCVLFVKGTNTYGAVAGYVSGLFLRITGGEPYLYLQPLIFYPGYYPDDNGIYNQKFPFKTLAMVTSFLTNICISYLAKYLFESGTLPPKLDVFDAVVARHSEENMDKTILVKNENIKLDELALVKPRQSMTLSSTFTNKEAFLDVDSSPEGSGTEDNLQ

[4] = target: T2, Cysteine protease ATG4B (Homo sapiens, UniProt Q9Y4P1); format: functional;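 also: Fluorescence-based dose-response confirmation assay measuring inhibition of ATG4B activity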
T2 sequence (Q9Y4P1 whole entry): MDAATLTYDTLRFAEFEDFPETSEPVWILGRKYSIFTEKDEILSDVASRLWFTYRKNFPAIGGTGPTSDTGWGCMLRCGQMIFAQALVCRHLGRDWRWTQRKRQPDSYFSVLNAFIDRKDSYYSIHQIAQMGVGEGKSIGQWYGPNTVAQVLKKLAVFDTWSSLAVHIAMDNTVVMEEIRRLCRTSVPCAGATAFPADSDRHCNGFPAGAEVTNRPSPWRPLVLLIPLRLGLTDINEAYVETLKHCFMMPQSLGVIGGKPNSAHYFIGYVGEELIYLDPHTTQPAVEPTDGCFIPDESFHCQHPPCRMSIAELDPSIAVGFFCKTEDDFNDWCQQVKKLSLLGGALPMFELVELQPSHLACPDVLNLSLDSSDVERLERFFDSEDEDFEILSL

[5] = target: T3, Streptokinase A (Streptococcus pyogenes serotype M1, UniProt P10520); experiment: viability-normalized secreted streptokinase activity reduction – plasminogen activation absorbance, OD405, dose response (AID 1914); format: functional, Streptococcus pyogenes M1 GAS;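 also: secreted streptokinase activity via plasminogen activation per viability signal from cell pellet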
T3 sequence (P10520 whole entry): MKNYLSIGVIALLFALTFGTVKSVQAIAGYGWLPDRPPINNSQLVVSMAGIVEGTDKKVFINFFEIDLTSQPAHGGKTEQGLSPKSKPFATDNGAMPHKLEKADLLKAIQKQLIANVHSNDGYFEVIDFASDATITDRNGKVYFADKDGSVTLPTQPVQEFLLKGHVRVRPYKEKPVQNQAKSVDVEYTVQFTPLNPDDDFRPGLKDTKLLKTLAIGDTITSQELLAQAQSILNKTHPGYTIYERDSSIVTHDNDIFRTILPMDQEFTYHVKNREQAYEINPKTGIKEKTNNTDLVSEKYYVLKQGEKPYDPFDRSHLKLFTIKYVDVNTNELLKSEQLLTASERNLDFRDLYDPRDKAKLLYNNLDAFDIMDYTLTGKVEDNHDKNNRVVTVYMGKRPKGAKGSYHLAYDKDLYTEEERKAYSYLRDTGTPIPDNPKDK

[6] = target: Phospholipase A2 (Homo sapiens, UniProt P04054); format: functional;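 also: confirmatory dose-response counterscreen on phospholipase A2, testing hits that came from an ultra-high-throughput screen for ATG4B inhibitors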
[7] = target: T1, High affinity choline transporter 1; experiment: human choline transporter blockers, potency – cell-based, 5-point CRC, membrane potential dye, dose response (AID 504840); format: functional
[8] = NIH-3T3 fibroblast cytotoxicity, dose response, cytotoxicity control, cell-based, fluorescence, Alamar Blue, secondary assay (AID 2327); format: functional;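 also: NIH-3T3 mouse fibroblasts cultured with fluconazole at 8 µg/mL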
[9] = system: Streptococcus sp. 'group A'; experiment: Streptococcus pyogenes SK(-)GAS viability under kanamycin – luminescence, BacTiterGlo, confirmation, counter-screen for streptokinase expression inhibitor project, dose response (AID 1900); format: functional, organism-based
[10] = target: T4, Corticotropin-releasing factor receptor 2/Corticotropin-releasing factor-binding protein (Homo sapiens, UniProt P24387+Q13324); experiment: activators of CRF receptor 2 with binding protein – uHTS hits, confirmation (AID 602473); format: functional; conditions: read-out: EC50_Mean
T4 sequence (Q13324 whole entry): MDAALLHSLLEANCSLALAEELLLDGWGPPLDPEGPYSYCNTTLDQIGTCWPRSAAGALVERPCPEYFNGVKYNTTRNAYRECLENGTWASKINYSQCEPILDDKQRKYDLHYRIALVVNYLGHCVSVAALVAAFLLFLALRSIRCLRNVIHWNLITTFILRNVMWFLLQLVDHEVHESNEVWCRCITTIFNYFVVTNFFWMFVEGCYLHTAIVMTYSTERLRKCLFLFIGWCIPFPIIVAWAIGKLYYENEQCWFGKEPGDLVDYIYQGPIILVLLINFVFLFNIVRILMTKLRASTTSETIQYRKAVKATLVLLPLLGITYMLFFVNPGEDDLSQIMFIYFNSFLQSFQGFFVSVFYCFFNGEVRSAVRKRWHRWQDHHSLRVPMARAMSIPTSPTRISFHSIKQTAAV
T4 sequence (P24387 whole entry): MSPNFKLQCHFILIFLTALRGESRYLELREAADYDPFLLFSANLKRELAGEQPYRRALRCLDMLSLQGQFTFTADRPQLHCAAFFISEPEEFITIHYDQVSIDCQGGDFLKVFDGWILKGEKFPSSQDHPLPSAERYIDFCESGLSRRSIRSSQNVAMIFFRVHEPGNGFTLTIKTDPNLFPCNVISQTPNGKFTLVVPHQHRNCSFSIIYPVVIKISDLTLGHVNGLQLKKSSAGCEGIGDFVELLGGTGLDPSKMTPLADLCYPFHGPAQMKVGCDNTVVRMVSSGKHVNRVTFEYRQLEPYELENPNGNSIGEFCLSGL

[11] = target: T5, Endoribonuclease toxin MazF (Escherichia coli K-12, UniProt P0AE70); experiment: activation of MazEF endoribonuclease cleavage – biochemical, fluorescence, single-stranded RNA substrate, uHTS hits, dose response (AID 588481); format: functional
T5 sequence (P0AE70 whole entry): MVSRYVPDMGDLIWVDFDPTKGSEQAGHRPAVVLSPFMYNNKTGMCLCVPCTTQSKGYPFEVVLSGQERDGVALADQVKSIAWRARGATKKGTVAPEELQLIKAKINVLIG

[12] = target: T5, Endoribonuclease toxin MazF; experiment: substrate-only fluorescence increase artefacts – biochemical, single-stranded RNase substrate, counter-screen for MazEF activator project, dose response (AID 588502); format: functional
[13] = target: Prothrombin (Homo sapiens, UniProt P00734); experiment: Thrombin 1536 HTS Dose Response Confirmation. [Related pubchem assays: 1046 (Thrombin 1536 HTS; hits were confirmed in this assay)]; format: functional
[14] = target: Genome polyprotein (dengue virus type 2, UniProt P29990); experiment: flavivirus cap methylation enzyme inhibition – biochemical, confirmation dose response, primary screen (AID 588689); format: functional
[15] = target: T6, Zinc finger protein mex-5 (Caenorhabditis elegans, UniProt Q9XUB2); experiment: potency of MEX-5 RNA-binding blockers – biochemical, C. elegans, fluorescence polarization, dose response (AID 1960)
T6 sequence (Q9XUB2 whole entry): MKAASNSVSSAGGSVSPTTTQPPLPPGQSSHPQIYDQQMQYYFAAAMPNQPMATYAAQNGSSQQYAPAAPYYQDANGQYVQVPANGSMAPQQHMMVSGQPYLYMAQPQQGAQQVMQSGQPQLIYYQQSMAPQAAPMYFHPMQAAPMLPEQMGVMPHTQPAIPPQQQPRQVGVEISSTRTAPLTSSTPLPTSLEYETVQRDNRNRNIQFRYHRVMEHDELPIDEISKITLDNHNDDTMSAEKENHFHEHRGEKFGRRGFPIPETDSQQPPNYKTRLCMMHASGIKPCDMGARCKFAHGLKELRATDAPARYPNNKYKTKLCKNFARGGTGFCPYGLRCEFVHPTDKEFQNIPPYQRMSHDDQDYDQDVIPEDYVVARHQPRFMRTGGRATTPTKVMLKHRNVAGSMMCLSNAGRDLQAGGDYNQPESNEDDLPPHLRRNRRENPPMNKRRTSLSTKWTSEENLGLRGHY

[16] = target: Large T antigen (Simian virus 40, UniProt P03070); format: functional, Betapolyomavirus macacae;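 also: Confirmatory-stage PubChem screen for compounds that inhibit SV40 T antigen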
[17] = target: Heat shock protein HSP 90-alpha (Homo sapiens, UniProt P07900); format: functional, organism-based

Sequence of Phospholipase A2 (P04054 whole entry): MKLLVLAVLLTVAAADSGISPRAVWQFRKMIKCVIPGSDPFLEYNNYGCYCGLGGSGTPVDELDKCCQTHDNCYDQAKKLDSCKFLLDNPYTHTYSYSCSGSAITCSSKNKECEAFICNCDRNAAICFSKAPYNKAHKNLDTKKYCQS
Sequence of Large T antigen (P03070 whole entry): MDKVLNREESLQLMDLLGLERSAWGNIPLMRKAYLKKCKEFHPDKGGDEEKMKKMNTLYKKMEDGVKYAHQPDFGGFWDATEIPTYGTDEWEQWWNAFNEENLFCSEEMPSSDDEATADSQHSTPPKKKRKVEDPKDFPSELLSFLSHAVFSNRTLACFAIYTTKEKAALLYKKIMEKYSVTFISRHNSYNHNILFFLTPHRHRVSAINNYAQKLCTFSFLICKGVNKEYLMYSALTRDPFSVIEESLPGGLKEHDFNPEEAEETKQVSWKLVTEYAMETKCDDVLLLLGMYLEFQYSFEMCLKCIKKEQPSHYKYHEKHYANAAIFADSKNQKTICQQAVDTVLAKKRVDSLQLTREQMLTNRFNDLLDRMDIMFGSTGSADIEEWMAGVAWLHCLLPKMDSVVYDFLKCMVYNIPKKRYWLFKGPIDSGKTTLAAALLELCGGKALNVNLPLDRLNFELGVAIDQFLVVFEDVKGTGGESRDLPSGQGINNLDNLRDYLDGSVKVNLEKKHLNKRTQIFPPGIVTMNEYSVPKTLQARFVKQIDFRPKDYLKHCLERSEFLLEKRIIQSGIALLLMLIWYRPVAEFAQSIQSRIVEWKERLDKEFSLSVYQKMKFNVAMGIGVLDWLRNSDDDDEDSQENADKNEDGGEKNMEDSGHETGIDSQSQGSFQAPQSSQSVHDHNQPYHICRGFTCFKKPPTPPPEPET
Sequence of Genome polyprotein (P29990 2492-3391 limits assumed): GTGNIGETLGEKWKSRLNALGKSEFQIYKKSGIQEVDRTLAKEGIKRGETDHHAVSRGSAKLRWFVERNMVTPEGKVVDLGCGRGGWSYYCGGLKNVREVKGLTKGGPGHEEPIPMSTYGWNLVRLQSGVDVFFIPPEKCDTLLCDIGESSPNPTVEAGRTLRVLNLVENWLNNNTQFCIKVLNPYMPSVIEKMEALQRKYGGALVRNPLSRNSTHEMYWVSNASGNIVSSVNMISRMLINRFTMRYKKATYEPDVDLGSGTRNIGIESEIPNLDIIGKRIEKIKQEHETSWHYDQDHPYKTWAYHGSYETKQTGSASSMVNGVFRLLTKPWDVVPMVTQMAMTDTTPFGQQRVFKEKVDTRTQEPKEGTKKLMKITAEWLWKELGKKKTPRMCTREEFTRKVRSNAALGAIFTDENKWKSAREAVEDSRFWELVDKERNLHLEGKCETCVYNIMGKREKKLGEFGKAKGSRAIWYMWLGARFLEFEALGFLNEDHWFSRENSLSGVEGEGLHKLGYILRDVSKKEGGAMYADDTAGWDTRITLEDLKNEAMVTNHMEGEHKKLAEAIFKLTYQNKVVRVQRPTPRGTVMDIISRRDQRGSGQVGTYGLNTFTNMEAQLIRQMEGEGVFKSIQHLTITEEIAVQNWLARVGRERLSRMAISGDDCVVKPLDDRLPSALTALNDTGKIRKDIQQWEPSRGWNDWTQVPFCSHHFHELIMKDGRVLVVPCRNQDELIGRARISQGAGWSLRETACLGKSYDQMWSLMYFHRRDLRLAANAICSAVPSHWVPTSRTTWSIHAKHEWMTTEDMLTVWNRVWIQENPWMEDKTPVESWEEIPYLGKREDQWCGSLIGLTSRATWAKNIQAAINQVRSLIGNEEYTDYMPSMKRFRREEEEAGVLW

Row | SMILES | EC50 [2] | IC50 [4] | EC50 [5] | IC50 [6] | IC50 [7] | EC50 [9] | EC50 [11] | EC50 [12] | further results
1 | Nc1ncc(Br)cc1S(=O)(=O)Nc1cc(C(F)(F)F)cc(C(F)(F)F)c1 | 19.9 µM (active) | 8.94 µM (active) | 3.32 µM (active) | 8.69 µM (active) | 9.12 µM (active) | 6.6 µM (active) |  |  | EC50 [1]: 0.341 µM (active); IC50 [3]: 4.01 µM (active); EC50 [8]: 18.2 µM (active)
2 | CCC(CC)C1=NN2C(=N)/C(=C\c3cc(C)n(-c4cccc(C)c4)c3C)C(=O)N=C2S1 | 17.8 µM (active) | 15.7 µM (active) | > 150 µM (not active) | 0.975 µM (active) |  | 7.3 µM (active) |  |  | EC50 [10]: 6.03 µM (active)
3 | CC(=O)Nc1cccc(C(=O)/C=C/c2ccc(N(C)C)cc2)c1 |  |  |  |  |  |  | > 99 µM (inactive) | > 99 µM (inactive) | 
4 | O=C(O)c1cc([N+](=O)[O-])ccc1NCc1ccccc1Cl |  | 11.9 µM (active) |  | 9.55 µM (active) |  |  |  |  | IC50 [13]: > 50 µM (not active)
5 | Oc1c(Br)cc(Br)c(/C=N/n2c(S)nnc2-c2ccccc2)c1Br |  | 7.7 µM (active) |  | 36.8 µM (inactive) | 13.2 µM (active) |  |  |  | IC50 [14]: 17.9 µM (active); EC50 [15]: 5.63 µM (active); IC50 [16]: 28.2 µM (active); AC50 [17]: 8.53 µM (active)
6 | Nc1nonc1-n1nnc(C(=O)N/N=C/c2ccc3c(c2)OCO3)c1CSc1ccccc1 |  |  |  |  |  |  | > 99 µM (inactive) | > 99 µM (inactive) | 
